We go through 2 compounds from patent US9784725B2, “Light refraction imaging to measure liquid volume” (University of Pittsburgh—Of the Commonwealth System of …, priority 2016, dated 2017).

Assay [1] deals with differentiated CF HBE cells. The experiment in a line: ASL volume by refracted light microscopy after apical fluid bolus, isotonic versus hypertonic. Conditions: 5 μL PBS with 300 mM mannitol applied apically; ASL volume measured at 0, 4, 8, 24, 48 and 72 hours; FIG. 7. Format: cell-based, human. The procedure: (§1) HBE cells were cultured from excess pathological tissue following lung transplantation and organ donation under protocols approved by the Universities of Pittsburgh and North Carolina Investigational Review Boards. Cells were studied following 3-6 weeks of culture and considered differentiated when a mucociliary phenotype was apparent on phase contrast microscopy. HBE cultures grown in a twenty four well plate on 0.33 cm^2 filter inserts (See, e.g., FIG. 1B) were visualized with a standard cell culture microscope (Olympus CK40) with a 5× plain light objective (Zeiss) and imaged using a Scion CFW 1610M camera with μManager (30). […] In order to standardize the quantification of the meniscus image, a custom script using the open-source ImageJ software was developed. […] The length of the meniscus can be determined as the length from where the grey value is greater than min to the end of the array and the area under the curve (AUC) is measured using the numerically integrated rectangular rule. […] Therefore, the correlation between the derived parameters of the intensity profile and the ASL volume were determined, rather than mathematically calculating the volume based on the AUC of the intensity profile. […] Thus, the ASL volume can be measured from the image of the meniscus by integrating the […] value with the experimentally derived calibration curve shown in FIG. 4B. […]

For assay [2], the system named is differentiated HBE cultures. The assay can be described thus: ASL volume by refracted light microscopy of the meniscus, bumetanide treatment. The class given is cell-based, human. The conditions noted are these: 100 μM bumetanide for three days prior to measurement; mean ±SEM; control filters 10.6±1.0 μL; p<0.001. Here is the method:
as §1

As for `OC[C@@H](O)[C@@H](O)[C@H](O)[C@H](O)CO` [mannitol], in assay [1], the “ASL volume expansion compared to isotonic fluid” value is “more pronounced and prolonged ASL volume expansion”.

The compound `CCCCNc1cc(C(=O)O)cc(S(N)(=O)=O)c1Oc1ccccc1` [bumetanide] gave an ASL volume in assay [2] of 1.1 ± 0.1 µL.
